Experimental data from the supplement of paper PMC5908809.

Assays:
NK-92 (IL-2 2.5 ng/mL) [1] = assay: drug sensitivity score (DSS) (DSS units); higher = more sensitive; extreme values may be limits of the assay; settings: 72 h
YT (IL-2 2.5 ng/mL) [2] = assay: as above; settings: 72 h
[3] = system: normal primary NK cells, pool 1 (3 donors), resting (IL-2 0 ng/mL); assay: as above; settings: 72 h
SNK-6 (IL-2 2.5 ng/mL) [4] = assay: as above; settings: 72 h
NK-YS (IL-2 2.5 ng/mL) [5] = assay: as above; settings: 72 h
[6] = system: normal primary NK cells, pool 1 (3 donors) (IL-2 2.5 ng/mL); assay: as above; settings: 72 h
KAI3 (IL-2 2.5 ng/mL) [7] = assay: as above; settings: 72 h
KHYG-1 (IL-2 2.5 ng/mL) [8] = assay: as above; settings: 72 h
IMC-1 (IL-2 20 ng/mL) [9] = assay: as above; settings: 72 h
[10] = system: normal primary NK cells, pool 3 (3 donors) (IL-2 2.5 ng/mL); assay: as above; settings: 72 h
[11] = system: normal primary NK cells, pool 2 (3 donors) (IL-2 2.5 ng/mL); assay: as above; settings: 72 h
DERL-7 (IL-2 2.5 ng/mL) [12] = assay: as above; settings: 72 h
NKL (IL-2 2.5 ng/mL) [13] = assay: as above; settings: 72 h
NK-92 (IL-2 2.5 ng/mL) [14] = assay: percent inhibition of viability; higher = more inhibition; settings: 72 h
YT (IL-2 2.5 ng/mL) [15] = assay: as above; settings: 72 h
[16] = system: normal primary NK cells, pool 1 (3 donors), resting (IL-2 0 ng/mL); assay: as above; settings: 72 h
SNK-6 (IL-2 2.5 ng/mL) [17] = assay: as above; settings: 72 h
NK-YS (IL-2 2.5 ng/mL) [18] = assay: as above; settings: 72 h
[19] = system: normal primary NK cells, pool 1 (3 donors) (IL-2 2.5 ng/mL); assay: as above; settings: 72 h
KAI3 (IL-2 2.5 ng/mL) [20] = assay: as above; settings: 72 h
KHYG-1 (IL-2 2.5 ng/mL) [21] = assay: as above; settings: 72 h
IMC-1 (IL-2 20 ng/mL) [22] = assay: as above; settings: 72 h
[23] = system: normal primary NK cells, pool 3 (3 donors) (IL-2 2.5 ng/mL); assay: as above; settings: 72 h
[24] = system: normal primary NK cells, pool 2 (3 donors) (IL-2 2.5 ng/mL); assay: as above; settings: 72 h
DERL-7 (IL-2 2.5 ng/mL) [25] = assay: as above; settings: 72 h
NKL (IL-2 2.5 ng/mL) [26] = assay: as above; settings: 72 h
[27] = system: normal NK cells expanded with K562-aAPC; assay: as above; settings: 72 h, IL-2 2.5 ng/mL
Procedure: (§1)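 Drug sensitivity and resistance testing on K562-aAPC-expanded normal NK cells: 5 concentrations (10-fold steps over a 10,000-fold range), 72 h at 37 °C, viability by CellTiter-Glo normalised to DMSO and benzethonium chloride controls; DSS from the fitted curve.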

[28] = system: normal NK cells expanded with K562-aAPC; assay: drug sensitivity score (DSS) (DSS units); higher = more sensitive; extreme values may be limits of the assay; settings: 72 h; IL-2 2.5 ng/mL
Procedure: as §1

Cc1ncc(-c2ccnc(Nc3ccc(S(C)(=O)=O)cc3)n2)n1C(C)C [AZD-5438] (max concentration tested 10000 nM)
Settings | drug sensitivity score
DERL-7 (IL-2 2.5 ng/mL) [12] | 10
IMC-1 (IL-2 20 ng/mL) [9] | 10.5
KAI3 (IL-2 2.5 ng/mL) [7] | 11
KHYG-1 (IL-2 2.5 ng/mL) [8] | 11.3
NK-92 (IL-2 2.5 ng/mL) [1] | 5.86
NK-YS (IL-2 2.5 ng/mL) [5] | 12.6
NKL (IL-2 2.5 ng/mL) [13] | 6.34
SNK-6 (IL-2 2.5 ng/mL) [4] | 3.04
YT (IL-2 2.5 ng/mL) [2] | 9.28
[3] | 3.02
[6] | 7.3
[10] | 8.5
[11] | 7.94
[28] | 6.5

percent inhibition of viability [%]
Settings | 1 nM | 10 nM | 100 nM | 1000 nM | 10000 nM
DERL-7 (IL-2 2.5 ng/mL) [25] | -5.59 | 2.74 | -9.82 | 31.4 | 100
IMC-1 (IL-2 20 ng/mL) [22] | -2.44 | -0.85 | 6.12 | 39.1 | 101
KAI3 (IL-2 2.5 ng/mL) [20] | -3.46 | -9.8 | -5.74 | 41.5 | 102
KHYG-1 (IL-2 2.5 ng/mL) [21] | 0.77 | 0.77 | 0.38 | 45.4 | 105
NK-92 (IL-2 2.5 ng/mL) [14] | -5.15 | -8.65 | -22.7 | -0.77 | 104
NK-YS (IL-2 2.5 ng/mL) [18] | -2.69 | -3.59 | 1.96 | 59.8 | 103
NKL (IL-2 2.5 ng/mL) [26] | -7.07 | -5.93 | -18.1 | 3.89 | 103
SNK-6 (IL-2 2.5 ng/mL) [17] | -9.66 | -5.34 | 6.52 | -1.33 | 58.4
YT (IL-2 2.5 ng/mL) [15] | -1.56 | -0.25 | 0.72 | 24 | 105
[16] | 4.17 | -8.18 | -42.6 | -99.9 | 91.4
[19] | -7.21 | -12.4 | -17.5 | 11.4 | 98
[23] | -7.04 | -10.4 | 1.54 | 18.4 | 99.4
[24] | -12.1 | -8.8 | -8.52 | 15.6 | 96.9
[27] | 0.15 | -0.53 | -5.24 | 6.05 | 101

O[C@H]1CC[C@H](Nc2ncc3nc(Nc4c(F)cc(F)cc4F)n([C@H]4CCOC4)c3n2)CC1 [Tanzisertib] (max concentration tested 10000 nM)
Settings | drug sensitivity score
DERL-7 (IL-2 2.5 ng/mL) [12] | 0.7
IMC-1 (IL-2 20 ng/mL) [9] | 0
KAI3 (IL-2 2.5 ng/mL) [7] | 0
KHYG-1 (IL-2 2.5 ng/mL) [8] | 0
NK-92 (IL-2 2.5 ng/mL) [1] | 0
NK-YS (IL-2 2.5 ng/mL) [5] | 1.7
NKL (IL-2 2.5 ng/mL) [13] | 4.27
SNK-6 (IL-2 2.5 ng/mL) [4] | 0
YT (IL-2 2.5 ng/mL) [2] | 0.43
[3] | 0
[6] | 0.03
[10] | 0
[11] | 0.02
[28] | 0.57

percent inhibition of viability [%]
Settings | 1 nM | 10 nM | 100 nM | 1000 nM | 10000 nM
DERL-7 (IL-2 2.5 ng/mL) [25] | 2.01 | 0.84 | 5.01 | 1.8 | 18.5
IMC-1 (IL-2 20 ng/mL) [22] | -1.71 | -1.33 | 2.23 | -2.89 | 5.65
KAI3 (IL-2 2.5 ng/mL) [20] | -8.76 | -8.77 | 4.38 | -3.26 | 2.19
KHYG-1 (IL-2 2.5 ng/mL) [21] | 0.6 | 1.16 | 7.05 | 3.25 | 12.8
NK-92 (IL-2 2.5 ng/mL) [14] | -1.51 | -5.43 | 11.5 | -0.78 | 4.63
NK-YS (IL-2 2.5 ng/mL) [18] | -2.74 | -2.64 | 8.64 | 8.4 | 27.7
NKL (IL-2 2.5 ng/mL) [26] | -12.2 | -7.14 | 8.81 | 20.3 | 40
SNK-6 (IL-2 2.5 ng/mL) [17] | -5.24 | -3.37 | -1.51 | -9.49 | -28.9
YT (IL-2 2.5 ng/mL) [15] | 1.29 | 0.43 | 6.25 | 4.44 | 17.9
[16] | -2.07 | -5.9 | 3.76 | -27.5 | -23.7
[19] | -1.02 | -9.12 | -4.55 | -5.56 | 12.8
[23] | -10.2 | -3.98 | 0.77 | -8.69 | 3.78
[24] | -13.6 | -1.21 | 2.95 | -6.75 | 12.9
[27] | -0.53 | 1.03 | -5.53 | 1.96 | 16.8
